Reference: ChEMBL document CHEMBL1201862, “PubChem BioAssay data set” (2004)
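Where inhibition never reached the appropriate level, the endpoint shown equals the highest concentration tested. Otherwise, values were interpolated linearly from a five-concentration, 48-hour dose response in 96-well plates. Abbreviation: GI50, concentration required for 50% inhibition of growth.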 Activity calls are given as the source filed them. No stated cut-off is given here; in the data, active = GI50 up to about 1.1 µM and inactive = higher.

How the values were obtained:
Assay in all cases: DTP human tumour cell line panel, 48 h
[1] = system: 786-0
[2] = system: BT-549
[3] = system: DLD-1
[4] = system: DMS-114
[5] = system: KM-20L2
[6] = system: LXFL 529
[7] = system: M19-MEL
[8] = system: XF498
[9] = system: RXF 631

CCN1C(=O)c2cc(OC)c(OC)cc2C(=O)C12OC(=O)c1cc3c(cc12)OCO3 (centres undefined)
GI50 [1]: 22.4 µM (inactive)
GI50 [2]: > 100 µM (inactive)

COC[C@@H](Cc1ccc(OC)c(OC)c1)[C@@H](COC)Cc1ccc(OC)c(OC)c1
GI50 [3]: > 100 µM (inactive)
GI50 [4]: 56.5 µM (inactive)
GI50 [5]: > 100 µM (inactive)
GI50 [6]: 81.7 µM (inactive)
GI50 [7]: > 100 µM (inactive)
GI50 [8]: > 100 µM (inactive)

C=COCCCOc1ccccc1
GI50 [3]: > 100 µM (inactive)
GI50 [4]: > 100 µM (inactive)
GI50 [5]: > 100 µM (inactive)
GI50 [6]: > 100 µM (inactive)
GI50 [7]: > 100 µM (inactive)
GI50 [8]: > 100 µM (inactive)

CCOc1c(/N=N/c2ccccc2Cl)c(-c2ccccc2)nn1C(=S)S
GI50 [1]: 37.4 µM (inactive)
GI50 [2]: 35.9 µM (inactive)

CC(C)(Br)C1(O)CCCN1C(=O)c1ccccc1 (centres undefined)
GI50 [3]: > 100 µM (inactive)
GI50 [5]: > 100 µM (inactive)
GI50 [6]: > 100 µM (inactive)
GI50 [7]: > 100 µM (inactive)
GI50 [9]: > 100 µM (inactive)

Nc1nnc(CCC(=O)Nc2cc(Cl)ccc2Cl)n1N
GI50 [3]: > 100 µM (inactive)
GI50 [4]: > 100 µM (inactive)
GI50 [5]: > 100 µM (inactive)
GI50 [6]: > 100 µM (inactive)
GI50 [7]: > 100 µM (inactive)
GI50 [9]: > 100 µM (inactive)
GI50 [8]: > 100 µM (inactive)

COc1cccc(C2C(C(=O)O)=C(CO)Oc3cc4c(cc32)OCO4)c1 (centres undefined)
GI50 [3]: > 100 µM (inactive)
GI50 [4]: > 100 µM (inactive)
GI50 [5]: > 100 µM (inactive)
GI50 [6]: > 100 µM (inactive)
GI50 [7]: > 100 µM (inactive)
GI50 [8]: 36.5 µM (inactive)

C/C(=N/NS(=O)(=O)c1ccc([N+](=O)[O-])cc1)c1cccc[n+]1[O-]
GI50 [1]: > 100 µM (inactive)
GI50 [3]: > 100 µM (inactive)
GI50 [4]: > 100 µM (inactive)
GI50 [5]: > 100 µM (inactive)
GI50 [6]: > 100 µM (inactive)
GI50 [7]: > 100 µM (inactive)
GI50 [8]: > 100 µM (inactive)

Brc1cccc(Nc2ncnc3sc4c(c23)CCC(Nc2cccc(Br)c2)C4)c1 (centres undefined)
GI50 [1]: > 100 µM (inactive)
GI50 [2]: > 100 µM (inactive)

CC(C)c1cccc(C(C)C)c1OS(=O)(=O)NC(=O)OC(C(F)(F)F)C(F)(F)F
GI50 [2]: 67.8 µM (inactive)

CCCn1cc2c3c(cccc31)C1C=C(C)CN(C)C1C2 (centres undefined)
GI50 [3]: 20.7 µM (inactive)
GI50 [4]: 15.1 µM (inactive)
GI50 [5]: 13 µM (inactive)

O=C(NNC(=O)c1nsc2ccccc12)c1ccc(Cl)cc1
GI50 [4]: > 10 µM (inactive)
GI50 [5]: 19.8 µM (inactive)
GI50 [6]: 19.7 µM (inactive)
GI50 [7]: 20 µM (inactive)

CC(=O)/N=C1/N(/C=C2\C(=O)Oc3ccccc3C2=O)C(=O)/C(=C/c2ccc(NC(C)=O)cc2)N1C
GI50 [1]: > 100 µM (inactive)

O=C(Nc1cccc(C(=O)NCCCO)c1)/C(=C/c1ccccc1)NC(=O)c1ccccc1
GI50 [1]: > 100 µM (inactive)
GI50 [2]: > 100 µM (inactive)

Cc1c(N(Cc2ccccc2)Cc2ccccc2)nc(S(C)(=O)=O)nc1S(C)(=O)=O
GI50 [3]: 1.87 µM (inactive)
GI50 [4]: 1.82 µM (inactive)
GI50 [5]: 1.74 µM (inactive)
GI50 [6]: 1.91 µM (inactive)
GI50 [7]: 1.54 µM (inactive)
GI50 [8]: 1.73 µM (inactive)

COc1ccc(CC2CCc3nc(N)nc(N)c3C2)cc1OC (centres undefined)
GI50 [1]: 0.0551 µM (active)
GI50 [2]: 0.246 µM (active)

C=C1C(=O)O[C@@H]2[C@H]3O[C@]3(C)CCC=C(C)CC[C@@H]12
GI50 [3]: 12.5 µM (inactive)
GI50 [4]: 45.9 µM (inactive)
GI50 [5]: 24.8 µM (inactive)
GI50 [7]: 14.3 µM (inactive)
GI50 [8]: 16.9 µM (inactive)

C=C1c2nc3ccccc3n2C=C(c2ccccc2)N1c1ccc([N+](=O)[O-])cc1
GI50 [1]: 0.855 µM (active)
GI50 [2]: 9.16 µM (inactive)

C=CS(=O)(=O)CCN1CC1
GI50 [1]: > 10 µM (inactive)
GI50 [2]: > 10 µM (inactive)

COc1cccc(/C=C/C(=O)N2CC(CCl)c3c2cc(N)c2ccccc32)c1 (centres undefined)
GI50 [1]: 0.00106 µM (active)
GI50 [2]: 0.0122 µM (active)

CC(C)(C)C(=O)OCC1OC(N=[N+]=[N-])C(OC(=O)C(C)(C)C)C(OC(=O)C(C)(C)C)C1OC(=O)C(C)(C)C (centres undefined)
GI50 [3]: > 100 µM (inactive)
GI50 [4]: > 100 µM (inactive)
GI50 [5]: > 100 µM (inactive)
GI50 [6]: > 100 µM (inactive)
GI50 [8]: > 100 µM (inactive)

CCc1c(-c2ccccc2)[nH]c2ccccc2c1=O
GI50 [2]: 59.4 µM (inactive)
